Data taken from patent US12168673B2 (Mitopower, Inc., priority 2022, dated 2024).
Where two headings read alike, the source gives them in different places.

Columns and labels:
Jurkat Cells = experiment: Cellular NAD+ levels in Jurkat cells (LCMS/MS); assay type: cell-based; conditions: 30 μM, four hours of incubation
Experimental: Compounds 100, 101 and 102 were weighted out to prepare 60 μM stock solutions in RPMI media. 200 ng/mL solution of Rac-tenofovir d6 (Vivan Life-Sciences) was prepared in methanol (MeOH) and placed at −20° C. until use.
Jurkat Cells, sourced from NCCS Pune, were cultured in RPMI media containing FBS & Antibiotics. Cells from different flasks (90% confluent) were pooled into a 15 mL conical tube and centrifuged for 5 mins at 1200 rpm for 5 mins. The supernatant solution was discarded, and the pellet was washed with 5 mL sterile PBS (without Ca^2+ & Mg^2+). The tube was then centrifuged at 1200 rpm for 5 mins and the supernatant was discarded. The cell pellet was resuspended in 7 mL of RPMI media, and a cell count was done using 10 uL of the cell solution. 1.5 million cells from the cell solution were seeded into 1.5 mL microcentrifuge tubes. […] The tubes were placed in racks and gently swirled to mix the compounds into the media containing the cells. These tubes were then incubated for 4 hours in a 37° C. incubator at 5% CO2. After 4 hours of incubation the cells were spun down at 1000 rpm for 10 mins, the supernatant was discarded carefully, and cells were snap frozen in liquid nitrogen. When the samples were run, the extraction of the cells was on ice, cells were lysed using 20 uL deionized water and then ice cold 80% methanol containing the internal standard—Rac-Tenofovir D was added. The tubes were then vortexed at 2500 rpm for 8 minutes and then centrifuged at […] for 10 minutes. 150 uL of the supernatant was carefully transferred to HPLC vials and was analyzed for NAD^+ on the Abscised 4000 Q Trap LCMS/MS system. A C18, 3.5 μm, 2.1×100 mm, Bridge Column was used in the LC. The mobile phase consisted of 10 mM ammonium acetate with 0.1% acetic acid and 0.1% hexylamine as Solvent-A and 10 mM Ammonium acetate with 0.1% acetic acid and 0.1% hexylamine in 95/5 MeOH/H2O as Solvent-B. The gradient used was 0 mins-0.0% B, 0.5 mins-100% B, 1.5 mins-100% B, 3.0 mins-100% B, 3.1 mins-0.0% B, 7.0-STOP. The column flow rate was 0.5 mL/min. The sample injection volume was […].

Huh-7 Cells = experiment: Cellular NAD+ levels in Huh-7 cells (LCMS/MS); assay type: cell-based; conditions: 125 μm, four hours of incubation
Experimental: Huh-7 Cells, sourced from NCCS Pune, were cultured in RPMI media containing FBS & Antibiotics. Cells from different flasks (80-90% confluent) were pooled into a 15 mL conical tube and centrifuged for 5 mins at 1200 rpm for 5 mins. The supernatant solution was discarded, and the pellet was washed with 5 mL sterile PBS (without Ca^2+ and Mg^2+). The tube was then centrifuged at 1200 rpm for 5 mins and the supernatant was discarded. The cell pellet was resuspended in 7 mL of RPMI media, and a cell count was done using 10 uL of the cell solution. 1.5 million cells from the cell solution were seeded into 1.5 mL microcentrifuge tubes. […] The tubes were placed in racks and gently swirled to mix the compounds into the media containing the cells. These tubes were then incubated for 4 hours in a 37° C. incubator at 5% CO2. After 4 hours of incubation the cells were spun down at 1000 rpm for 10 mins, the supernatant was discarded carefully, and cells were snap frozen in liquid nitrogen. When the samples were run, the extraction of the cells was on ice, cells were lysed using 20 uL deionized water and then ice cold 80% methanol containing the internal standard—Rac-Tenofovir D was added. The tubes were then vortexed at 2500 rpm for 8 minutes and then centrifuged at […] for 10 minutes. 150 uL of the supernatant was carefully transferred to HPLC vials and was analyzed for NAD^+ on the Abscised 4000 Q Trap LCMS/MS system. A C18, 3.5 μm, 2.1×100 mm, Bridge Column was used in the LC. The mobile phase consisted of 10 mM ammonium acetate with 0.1% acetic acid & 0.1% hexylamine as Solvent-A and 10 mM Ammonium acetate with 0.1% acetic acid and 0.1% hexylamine in 95/5 MeOH/H2O as Solvent-B. The gradient used was 0 mins-0.0% B, 0.5 mins-100% B, 1.5 mins-100% B, 3.0 mins-100% B, 3.1 mins-0.0% B, 7.0-STOP. The column flow rate was 0.5 mL/min. The sample injection volume was […].

[1] = PK study in rats (plasma); assay type: in vivo; conditions: for half-life: read-out: T1/2 (converted); for AUC(0-t): read-out: AUC0-1
in vitro = conditions: human, plasma
Experimental: (§1) The test compounds were weighed and prepared as 10 mM stocks in 100% DMSO. 10 μM is the final test concentration for all compounds.
(§2) The samples were prepared by spiking test compound(s) in plasma at 10 μM final concentration. 200 μL of plasma containing the test compound was added into the donor well (RED Chamber) of the insert. Simultaneously 350 μL of dialysis buffer (1×PBS) was added into the receiver well (white chamber). Two measurements were made for each test compound. The plate was covered with a sealer and incubated at 37° C. degrees on an orbital shaker at 500 rpm for 5 hours.
(§3) After incubation, 25 μl of plasma (RED chamber) and 25 μl of buffer (white chamber) samples were separately collected into separate centrifugation tubes. Plasma and buffer samples were precipitated with 200 μL of 100% acetonitrile containing internal standards. 25 μl of T0 (T Zero) plasma samples (samples before 5 hours incubation) were collected (To samples were processed immediately after the preparation of plasma working stock solution. These samples serve as a measure for calculating the percentage recovery of the test compound and precipitated using 100% acetonitrile containing internal standards). The samples were vortexed at 1000 rpm for 5 min and centrifuged at 4000 rpm for 10 min. The supernatant was diluted 2-fold with water and injected into LC-MS/MS.
(§4) The % of Plasma bound/unbound fraction was calculated by the following equation: % Unbound or % free=100*(Fc/Tc); % Recovery=100 (Fc+Tc)/[…] where Tc=Total compound concentration as determined by the calculated concentration on the plasma side of the membrane (concentration in plasma chamber), Fc=Free compound concentration as determined by the calculated concentration on the buffer side of the membrane (concentration in buffer chamber) and T0=Total compound concentration as determined before dialysis.

Human Plasma Protein = experiment: in vitro
Experimental: as §1, §2, §3, §4

human hepatocytes [2] = experiment: Human hepatocyte clearance; assay type: in vitro ADME
Experimental: (§5) A hepatocyte vial was taken out from the liquid nitrogen tank and was thawed in a water bath maintained at 37° C. The thawed cell suspension was transferred into a torsion tube containing 50 mL of thawing media (Xenotech). The thawing media containing hepatocytes was centrifuged at 1000 rpm for 5 min, the supernatant was discarded and the pellet was resuspended in 2 ml of Xenotech OptiIncubate Media. The cells were counted by using a haemocytometer after mixing an aliquot of cell suspension with equal volume of trypan blue. The cell suspension was diluted to a working density of 2 million cells with DMEM media without FBS/incubation media.
(§6) The assay was performed in duplicates (n=2). 150 μL of 2 million cell working stock of hepatocyte cell suspension was added to a 24 well plate and incubated in a 37° C. incubator, with speed of 500 RPM for 10 min. 150 μL of 2 μM working stock of test compound was incubated separately. The reaction at 0, 15, 30, 60 and 90 min was stopped by precipitating 20 μL of incubation mixture with 200 μL of acetonitrile containing internal standard. […] The supernatant was separated and diluted 1:1 with water before injecting in LC-MS/MS analysis.

human hepatocytes [3] = conditions: 1 μM
Experimental: (§7) 10 mM stock solution of test compound was prepared in DMSO and diluted to a concentration of 1 mM with DMSO. Working concentration of 2 μM was prepared by further dilution with PBS. Preincubation mixture of 150 μL of hepatocyte cell suspension (1,000,000 cells/mL, INVITROGRO HT medium buffer), was added to vials for preincubation for 10 min @37° C.
(§8) 150 μL of 2 μM working stock of the test compound was added to the cell suspension and incubated at @37 C at 500 rpm. The reaction was stopped at 0, 15, 30, 60 and 90 min by precipitating 50 μL of the incubation mixture with 150 μL of acetonitrile. Samples were vortexed for 5 min at 1200 rpm and centrifuged at 4000 rpm for 10 min. 150 μL of the supernatant was diluted with 150 μL of water and injected in MS system (SCIEX, API 4500 Q Trap) for analysis.

Kinetic solubility = assay type: physicochemical; conditions: aqueous buffer, kinetic from dmso stock, 0.1 M phosphate buffered saline pH 7.4, target 100 μM, 1.5 h
Experimental: The target compound concentration was 100 μM (kinetic), the assay buffer was 0.1 M phosphate buffered saline pH 7.4, the mixing period was 1.5 h (kinetic). The sample was prepared by centrifugation or filtration and the detection method used was HPLC with UV-vis spectrometry.

[4] = Caco-2 permeability assay; conditions: human
Description: The endpoint measured is the intestinal permeability expressed as apparent permeability—Papp value. All permeability values are represented as ×10^−6 cm/sec.

[5] = Human hepatocyte clearance; assay type: in vitro ADME; conditions: human hepatocytes, 1 μM
Experimental: as §5, §6

human hepatocytes [6] = experiment: Human hepatocyte stability
Experimental: as §7, §8

[7] = read-out: Mean Solubility (μg/mL)

For O=C(O)c1cccnc1 [Nicotinic acid], the “NAD+ level increase compared to untreated cells” value (Jurkat Cells) was “showed statistical significance in terms of NAD^+ level increases”, the “NAD+ level increase compared to untreated cells” value (Huh-7 Cells) was “showed an increase” and the Cmax ([1]; rat, plasma, iv, 40 mg/kg) was 1240 ± 833 µM. The Tmax ([1]; rat, plasma, iv, 40 mg/kg) was 15 min, the clearance ([1]; rat, plasma, iv, 40 mg/kg) was 5.07 mL/min/kg and the half-life ([1]; rat, plasma, iv, 40 mg/kg, rats, Group 4: nicotinic acid 40 mg/kg IV) was 26.9 ± 16.6 min. For the same compound, the AUC(0-t) ([1]; rat, plasma, iv, 40 mg/kg) was 1080 ± 426 µM·h, the Vd ([1]; rat, plasma, iv, 40 mg/kg, read-out: Vss) was 0.211 ± 0.156 L/kg and the Cmax ([1]; rat, plasma, po, 200 mg/kg) was 519 ± 83.3 µM. The Tmax ([1]; rat, plasma, po, 200 mg/kg) was 79.8 ± 34.8 min, the bioavailability ([1]; rat, plasma, po, 200 mg/kg) was 29% and the half-life ([1]; rat, plasma, po, 200 mg/kg, rats, Group 3: nicotinic acid 200 mg/kg PO) was 85.2 ± 25.8 min. For the same compound, the AUC(0-t) ([1]; rat, plasma, po, 200 mg/kg) was 1680 ± 305 µM·h and the “IV pharmacokinetics profile (in words)” value ([1]; rats, IV) was “No distribution phase”.

CC(=O)CC(c1ccccc1)c1c(O)c2ccccc2oc1=O (stereo not shown) [Warfarin, reference compound] showed a fraction unbound at 5 h, 10 μM (in vitro; % Bound in plasma) of 0.0044, a fraction unbound at 5 h, 10 μM (in vitro; % Unbound in plasma) of 0.0054 and a fraction unbound at 5 h, 10 μM (in vitro; Fraction unbound) of 0.005. The “Remarks (binding class)” value (Human Plasma Protein) was “High binding”, the “Remarks (clearance class)” value (human hepatocytes [2]) was “Low*” and the “% Parent Remaining” value (human hepatocytes [3]; 0 h) was 100%. The “% Parent Remaining” value (human hepatocytes [3]; 0.25 h) was 91%, the “% Parent Remaining” value (human hepatocytes [3]; 0.5 h) was 89% and the “% Parent Remaining” value (human hepatocytes [3]; 1 h) was 96%. For the same compound, the “% Parent Remaining” value (human hepatocytes [3]; 1.5 h) was 96%.

CCCSc1ccc2nc(NC(=O)OC)[nH]c2c1 [Albendazole, reference compound] gave a solubility at 1.5 h (Kinetic solubility; read-out: Mean Solubility) of 0.66 µM and a solubility at 1.5 h (Kinetic solubility; [7]) of 0.2 µg/mL.

CC(C(=O)O)c1ccc(-c2ccccc2)c(F)c1 (stereo not shown) [Flurbiprofen, reference compound] showed a solubility at 1.5 h (Kinetic solubility; read-out: Mean Solubility) of 111 µM and a solubility at 1.5 h (Kinetic solubility; [7]) of 27 µg/mL.

For O=c1[nH]c2ccccc2n1CCCN1CCC(n2c(=O)[nH]c3cc(Cl)ccc32)CC1 [Domperidone, reference compound], the Papp A→B [4] was 3.9 ×10⁻⁶ cm/s, the Papp B→A [4] was 20.3 ×10⁻⁶ cm/s and the efflux ratio [4] was 5.2. For the same compound, the recovery ([4]; Caco-2, % Recovery A to B) was 61.8% and the recovery ([4]; Caco-2, % Recovery B to A) was 76.4%.

For C[C@]12CC[C@H]3[C@@H](CCC4=CC(=O)CC[C@@]43C)[C@@H]1CC[C@@H]2O [Testosterone, reference compound], the half-life at 1 μM ([5]; 0-90 min, read-out: T½) was 9.14 min, the hepatocyte CLint at 1 μM ([5]; read-out: Intrinsic Clearance (CL Int)) was 75.8 µL/min/1e6 cells and the “Remarks (clearance class)” value (human hepatocytes [2]) was “High*”. The “% Parent Remaining” value (human hepatocytes [6]; 0 mins) was 100%, the “% Parent Remaining” value (human hepatocytes [6]; 15 mins) was 28% and the “% Parent Remaining” value (human hepatocytes [6]; 30 mins) was 11%. For the same compound, the “% Parent Remaining” value (human hepatocytes [6]; 60 mins) was 3% and the “% Parent Remaining” value (human hepatocytes [6]; 90 mins) was 1%.

NC(=O)N1c2ccccc2C=Cc2ccccc21 [Carbamazepine, reference compound] gave a Papp A→B [4] of 22.2 ×10⁻⁶ cm/s, a Papp B→A [4] of 23.4 ×10⁻⁶ cm/s and an efflux ratio [4] of 1.1. For the same compound, the recovery ([4]; Caco-2, % Recovery A to B) was 89.3% and the recovery ([4]; Caco-2, % Recovery B to A) was 91%.
